Measured values as given in patent publication US7534766B2, “Glucuronide metabolites and epimers thereof of tigecycline” (Wyeth, priority 2004, dated 2009).

Key:
[1] = Stability of [14C]tigecycline during extraction from control human fecal homogenates; assay type: in vitro ADME
From the text: Similar results were observed following the extraction of [^14C]tigecycline from control fecal homogenates. In these samples, [^14C]tigecycline accounted for 94% of the radioactivity prior to extraction and 68% following the extraction. There was a corresponding increase in the epimer of tigecycline, which represented 4% of the radioactivity prior to extraction and 23% following the extraction. […] Other minor products represented less than 1% of the radioactivity prior to the extraction and 4% following the extraction.
The stability of [^14C]tigecycline during the extraction process was determined in control human fecal homogenates spiked with [^14C]tigecycline at 5 μg/g of homogenate. […] Samples were extracted and analyzed by HPLC with radioactivity flow detection.

[2] = LC/MS detection of tigecycline and its metabolites in humans, dogs and/or rats; conditions: LC/MS of human serum, urine, feces and rat and dog plasma and urine
Method: Characterization of the tigecycline metabolites in human serum, urine and feces, and rat and dog plasma and urine was performed using LC/MS analysis (Table 5).

[3] = LC/MS characterization of tigecycline related compounds in human serum, urine and feces; assay type: in vivo; conditions: human, after single 50 mg IV [14C]tigecycline dose
From the text: Three HPLC conditions were used during LC/MS analysis in this study. LC/MS Condition 1 was used for the majority of sample analyses for metabolite characterization and to isolate metabolite M3a from urine. LC/MS Condition 2 was used on selected samples to increase the retention time of glucuronide metabolites and for a co-chromatography experiment to confirm the identity of metabolites M8 and M9. LC/MS Condition 3 was used to analyze the polar metabolite M3a isolated from human urine.
The UV detector was set to monitor 340-360 nm. […] The flow rate was 0.2 mL/min. […] The linear mobile phase gradient is shown below.
Separations were accomplished on a Phenomenex Luna C18(2) column (250×2.0 mm, 5 μm) with a Uniguard C18 guard column (10×2 mm) (ThermoHypersil-Keystone). The flow rate was 0.2 mL/min. […] Mobile phase A was 0.02% trifluoroacetic acid in water (v/v) and mobile phase B was 0.02% trifluoroacetic acid in acetonitrile (v/v). The linear mobile phase gradient is shown below.
A Micromass Quattro Ultima triple quadrupole mass spectrometer (Waters Corp.) was operated in the positive ionization mode. LC/MS analysis with electrospray ionization (ESI) was conducted using a Z-spray interface. ESI-MS analysis of individual fractions from selected samples was conducted by direct infusion into a nanospray interface. Settings for the mass spectrometer are listed below.
Urine and feces samples were analyzed for tigecycline metabolites by LC/MS/MS analysis for precursors of product ions characteristic of tigecycline. Additionally, potential metabolites of tigecycline were searched for in the LC/MS data based upon results from previous studies in animals and humans.
Serum extracts were analyzed for tigecycline and selected metabolites by LC/MS/MS in the selected reaction monitoring (SRM) mode (LC/SRM) to reduce interference from endogenous components. […] The following tigecycline related components were monitored.

[4] = Estimated concentrations in rabbit serum by LC/MS (SRM) after intravenous tigecycline; assay type: in vivo, New Zealand White rabbit
Method: Three female New Zealand White rabbits, weighing between 3.9 and 4.3 kg at the time of dosing, were used. Animals were given food and water ad libitum. Animals were individually housed in standard cages. Rabbits were dosed at Wyeth Research, Chazy, N.Y. and samples shipped frozen to the Wyeth Research Biotransformation Department, Collegeville, Pa.
Standard curves for tigecycline, M3 and M9 were prepared in rabbit serum. Standard curves were prepared by adding the internal standard and synthetic tigecycline and metabolite standards to control plasma. Standard curve samples were prepared with tigecycline concentrations of 0, 10, 20, 50, 100, 200, 500 and 1000 ng/mL, with the linear range being […]. For 9-aminominocycline (M3), the concentrations were 0, 1, 5, 10, 20, 50, 100 and 200 ng/mL, with the linear range being 10 to 200 ng/mL. For N-acetyl-9-aminominocycline (M9), the concentrations were 1.6, 3.2, 6.4, 16, 32, 64 and 96 ng/mL, with the linear range being from 3.2 to 96 ng/mL. These samples were processed and analyzed as described above.
The column temperature was 25° C. The flow rate was 0.2 mL/min. […] Gradient 1 was used for metabolite identification (qualitative analysis).
Micromass MassLynx (version 4.0, Waters Corp.) was used for analysis of LC/MS data. The concentrations of tigecycline, 9-aminominocycline (M3) and N-acetyl-9-aminominocycline (M9) in serum were calculated based on the analyte to internal standard peak area ratios in the samples as compared to the standard curves generated in rabbit serum.

[5] = Mass balance: percent of [14C]tigecycline dose excreted in human urine and feces
Method: The concentration of tigecycline-related components in serum, urine and feces was calculated based on the total radioactivity concentrations reported elsewhere. These concentrations were converted to ng-tigecycline equivalents using the specific activity of the dose (1.00 μCi/mg). Using this value, the concentrations of the specific components were then estimated based on the distribution of radioactivity in the radiochromatograms.
An open-label, inpatient, multiple-dose tigecycline, single-dose [^14C]tigecycline metabolic disposition and mass balance study was performed in six healthy male volunteers. The clinical protocol called for twelve subjects. Of these twelve, six received the radioactive dose (subjects 1, 4, 5, 6, 7, and 8 with subject 8 later dropping out of the study.) Eligible subjects were selected based on inclusion/exclusion criteria, medical history, physical examination and additional procedures outlined in the study protocol. Each subject received a 100 mg loading dose on the morning of Day 1, followed by a 50 mg maintenance dose every 12 hours for an additional 5 doses. On the morning of study Day 4, six subjects received a single 50 mg dose of [^14C]tigecycline (50 μCi). Each tigecycline dose was administered via a 30-minute intravenous infusion.
Serum samples were collected for metabolite profiling prior to tigecycline dosing and 1, 4, 8, 24 and 48 hours following the [^14C]-labeled dose. For metabolite profiling, urine samples were collected at 0-4, 4-8, 8-24 and 24-48 hours and fecal samples were collected up to 48 hours following the [^14C]-labeled dose. Serum and urine samples, and fecal homogenates were shipped on dry ice to the Biotransformation Division of Drug Safety and Metabolism, Wyeth Research, Collegeville, Pa. The details of the sample collection and sample storage are described in the mass balance portion of the study. The 24-48 hour urine and fecal samples for subject #6 were incomplete since the subject withdrew from the study. While samples from this subject were used for metabolite profiling, the samples were not included in the mass balance calculations.

[6] = Safety and tolerability of intravenous tigecycline in healthy male volunteers; assay type: in vivo, human; conditions: IV 100-mg dose, five 50-mg doses, single 50-mg [14C]tigecycline dose
From the text: The clinical protocol called for twelve subjects.

CC(C)(C)NCC(=O)O [Metabolite M3a, t-butylaminoacetic acid]
increase in percent of the radioactivity, control fecal homogenates ([1]; during the extraction): 4% | percent of the radioactivity, control fecal homogenates ([1]; following the extraction): 5% | percent of the radioactivity, control fecal homogenates ([1]; prior to extraction, 5 μg/g of homogenate): 1% | Species in which detected [2]: R, D, H | Matrix in which the compound was observed [3]: S, U, F

CN(C)c1cc(NC(=O)CNC(C)(C)C)c(O)c2c1C[C@H]1C[C@H]3[C@H](N(C)C)C(O)=C(C(N)=O)C(=O)[C@@]3(O)C(O)=C1C2=O [Tigecycline]
concentration at 0.5 h ([4]; 0.5 hr after 4 mg/kg IV tigecycline, pooled serum, female New Zealand White rabbits): 2020 ng/mL | concentration at 2 h ([4]; female, New Zealand White, 2 hr after 4 mg/kg IV tigecycline, pooled serum): 1040 ng/mL | concentration at 6 h ([4]; female, New Zealand White, 6 hr after 4 mg/kg IV tigecycline, pooled serum): 287 ng/mL | concentration at 1 h ([4]; female, New Zealand White, serum, at 1 hour, 4 mg/kg IV tigecycline): 2020 ng/mL | Species in which detected [2]: R, D, H | Matrix in which the compound was observed [3]: S, U, F | Percentage of Dose (mean ± standard deviation) excreted ([5]; Feces (0–48 hours), n = 5): 9.9 ± 7.9% | Percentage of Dose (mean ± standard deviation) excreted ([5]; Total Urine (0-48 hours), n = 5, ND = not detected): 14.8 ± 2.9% | Percentage of Dose (mean ± standard deviation) excreted ([5]; Total urine + feces (0–48 hours), n = 5): 24.7 ± 8.7% | Percentage of Dose (mean ± standard deviation) excreted ([5]; Urine 0–4 hours, ND = not detected): 7.1 ± 0.9% | Percentage of Dose (mean ± standard deviation) excreted ([5]; Urine 4–8 hours, ND = not detected): 2.4 ± 1.1% | Percentage of Dose (mean ± standard deviation) excreted ([5]; Urine 8–24 hours, ND = not detected): 3.3 ± 1.1% | Percentage of Dose (mean ± standard deviation) excreted ([5]; Urine 24–48 hours, n = 5, ND = not detected): 1.7 ± 0.7% | adverse event frequency: dyspepsia [6]: 17% | adverse event frequency: injection site inflammation [6]: 17% | adverse event frequency: nausea [6]: 75% | adverse event frequency: vomiting [6]: 50% | safety and tolerability [6]: generally safe and well tolerated
